Test results published in the NIST ThermoML archive (doi:10.1021/je8004134).
± gives the expanded uncertainty stated by the source.

Legend:
[1] = an = ratio of the nth substance listed, in mol/kg; settings: 298.15 K, 101 kPa, Liquid; for speed of sound: Sing-around technique in a fixed-path interferometer; for mass density: Vibrating tube method
[2] = 298.15 K, 101 kPa, Liquid

[Cl][Co][Cl] [cobalt chloride] + CC(=O)N(C)C
[1]
Settings | mass density [kg/m3] | speed of sound [m/s]
a1 = 0.02558 | 938.7 ± 0.25 | 1456.5 ± 1.2
a1 = 0.05173 | 941.28 ± 0.25 | 1457.3 ± 1.2
a1 = 0.07676 | 943.75 ± 0.25 | 1458 ± 1.2
a1 = 0.1024 | 946.279 ± 0.24 | 1458.9 ± 1.2
a1 = 0.1289 | 948.892 ± 0.24 | 1459.8 ± 1.2
a1 = 0.1539 | 951.355 ± 0.24 | 1460.7 ± 1.2
a1 = 0.181 | 954.035 ± 0.24 | 1461.6 ± 1.2
a1 = 0.2056 | 956.46 ± 0.24 | 1462.6 ± 1.2

[Cl-].[Cl-].[Zn+2] [zinc chloride] + C[S+](C)[O-]
[1]
Settings | mass density [kg/m3] | speed of sound [m/s]
a1 = 0.05319 | 1100.61 ± 0.32 | 1484.1 ± 1.2
a1 = 0.0712 | 1102.49 ± 0.32 | 1484.2 ± 1.2
a1 = 0.0892 | 1104.34 ± 0.33 | 1484.5 ± 1.2
a1 = 0.107 | 1106.22 ± 0.33 | 1484.8 ± 1.2
a1 = 0.1251 | 1108.12 ± 0.33 | 1485.2 ± 1.2
a1 = 0.1517 | 1110.9 ± 0.33 | 1485.9 ± 1.2
a1 = 0.1776 | 1113.65 ± 0.33 | 1486.6 ± 1.2

[Cl][Mn][Cl] [manganese chloride] + C[S+](C)[O-]
[1]
Settings | mass density [kg/m3] | speed of sound [m/s]
a1 = 0.04414 | 1100.11 ± 0.33 | 1486.7 ± 1.2
a1 = 0.0572 | 1101.48 ± 0.33 | 1487.5 ± 1.2
a1 = 0.06981 | 1102.79 ± 0.33 | 1488.2 ± 1.2
a1 = 0.08942 | 1104.86 ± 0.33 | 1489.2 ± 1.2
a1 = 0.1135 | 1107.39 ± 0.33 | 1490.3 ± 1.2
a1 = 0.1386 | 1110.03 ± 0.33 | 1491.4 ± 1.2
a1 = 0.1616 | 1112.45 ± 0.33 | 1492.1 ± 1.2
a1 = 0.19 | 1115.49 ± 0.33 | 1493.2 ± 1.2
a1 = 0.213 | 1117.93 ± 0.33 | 1494.1 ± 1.2

[Mn+2].[O-][Cl+3]([O-])([O-])[O-].[O-][Cl+3]([O-])([O-])[O-] [manganese (II) perchlorate] + CC(=O)N(C)C
[1]
Settings | mass density [kg/m3] | speed of sound [m/s]
a1 = 0.03006 | 942.406 ± 0.31 | 1459.5 ± 1.2
a1 = 0.05909 | 948.611 ± 0.31 | 1463.1 ± 1.2
a1 = 0.08863 | 954.924 ± 0.31 | 1466.8 ± 1.2
a1 = 0.1177 | 961.136 ± 0.31 | 1470.4 ± 1.2
a1 = 0.1466 | 967.302 ± 0.3 | 1474.1 ± 1.2
a1 = 0.1747 | 973.327 ± 0.3 | 1477.6 ± 1.2
a1 = 0.2018 | 979.1 ± 0.3 | 1481.2 ± 1.2
a1 = 0.2287 | 984.866 ± 0.3 | 1485 ± 1.2

[Cl][Ni][Cl] [nickel chloride (NiCl2)] + C[S+](C)[O-]
[1]
Settings | mass density [kg/m3] | speed of sound [m/s]
a1 = 0.01103 | 1096.81 ± 0.34 | 1485.1 ± 1.2
a1 = 0.01653 | 1097.61 ± 0.34 | 1485.5 ± 1.2
a1 = 0.02222 | 1098.43 ± 0.34 | 1486 ± 1.2
a1 = 0.02764 | 1099.21 ± 0.34 | 1486.3 ± 1.2
a1 = 0.03328 | 1100.03 ± 0.34 | 1486.7 ± 1.2
a1 = 0.03812 | 1100.72 ± 0.34 | 1487.1 ± 1.2
a1 = 0.04374 | 1101.53 ± 0.34 | 1487.4 ± 1.2
a1 = 0.04953 | 1102.36 ± 0.34 | 1487.8 ± 1.2
a1 = 0.05501 | 1103.13 ± 0.34 | 1488.2 ± 1.2

[Mn+2].[O-][Cl+3]([O-])([O-])[O-].[O-][Cl+3]([O-])([O-])[O-] [manganese (II) perchlorate] + C[S+](C)[O-]
[1]
Settings | mass density [kg/m3] | speed of sound [m/s]
a1 = 0.0211 | 1099.48 ± 0.37 | 1485.3 ± 1.2
a1 = 0.02843 | 1100.98 ± 0.37 | 1485.8 ± 1.2
a1 = 0.037 | 1102.73 ± 0.37 | 1486.2 ± 1.2
a1 = 0.04758 | 1104.9 ± 0.37 | 1486.8 ± 1.2
a1 = 0.05763 | 1106.97 ± 0.37 | 1487.5 ± 1.2
a1 = 0.07358 | 1110.26 ± 0.37 | 1488.3 ± 1.2
a1 = 0.09456 | 1114.62 ± 0.37 | 1489.7 ± 1.2
a1 = 0.1139 | 1118.65 ± 0.38 | 1490.8 ± 1.2
a1 = 0.1337 | 1122.82 ± 0.38 | 1492 ± 1.2
a1 = 0.1566 | 1127.65 ± 0.38 | 1493.4 ± 1.2
a1 = 0.1754 | 1131.67 ± 0.38 | 1494.6 ± 1.2

CC(=O)N(C)C [N,N-dimethylethanamide] + [Cl][Co][Cl]
[1], a2 = 0
Settings | mass density [kg/m3] | speed of sound [m/s]
– | 936.417 ± 0.25 | 1455.4 ± 1.2

[Cl][Ni][Cl] [nickel chloride (NiCl2)] + CC(=O)N(C)C
[1]
Settings | mass density [kg/m3] | speed of sound [m/s]
a1 = 0.019 | 938.196 ± 0.25 | 1457 ± 1.2
a1 = 0.03382 | 939.871 ± 0.25 | 1458 ± 1.2
a1 = 0.05743 | 942.54 ± 0.25 | 1459.5 ± 1.2
a1 = 0.07634 | 944.678 ± 0.25 | 1460.8 ± 1.2
a1 = 0.09563 | 946.859 ± 0.25 | 1462 ± 1.2
a1 = 0.114 | 948.937 ± 0.25 | 1463.3 ± 1.2
a1 = 0.1327 | 951.046 ± 0.25 | 1464.5 ± 1.2
a1 = 0.1513 | 953.148 ± 0.25 | 1465.8 ± 1.2

CC(=O)N(C)C [N,N-dimethylethanamide] + [Mn+2].[O-][Cl+3]([O-])([O-])[O-].[O-][Cl+3]([O-])([O-])[O-]
[1], a2 = 0
Settings | mass density [kg/m3] | speed of sound [m/s]
– | 936.213 ± 0.31 | 1455.4 ± 1.2

CC(=O)N(C)C [N,N-dimethylethanamide]
[2]
Settings | mass density | speed of sound [m/s]
Sing-around technique in a fixed-path interferometer | – | 1455.4 ± 1.2
Vibrating tube method | 936.22 ± 0.25 kg/m3 [middle of 9 runs] | –

[Cu+2].[O-][Cl+3]([O-])([O-])[O-].[O-][Cl+3]([O-])([O-])[O-] [copper perchlorate] + C[S+](C)[O-]
[1]
Settings | mass density [kg/m3] | speed of sound [m/s]
a1 = 0.01425 | 1098.31 ± 0.38 | 1485 ± 1.2
a1 = 0.02779 | 1101.26 ± 0.38 | 1485.9 ± 1.2
a1 = 0.0419 | 1104.35 ± 0.38 | 1486.8 ± 1.2
a1 = 0.05636 | 1107.54 ± 0.38 | 1487.7 ± 1.2
a1 = 0.07067 | 1110.7 ± 0.38 | 1488.7 ± 1.2
a1 = 0.08366 | 1113.58 ± 0.38 | 1489.5 ± 1.2
a1 = 0.09783 | 1116.73 ± 0.38 | 1490.4 ± 1.2
a1 = 0.1114 | 1119.78 ± 0.39 | 1491.4 ± 1.2
a1 = 0.1251 | 1122.85 ± 0.39 | 1492.2 ± 1.2
a1 = 0.1384 | 1125.85 ± 0.39 | 1493.3 ± 1.2
